# Results: patent US8067627B2, “Zinc-monocysteine complex and method of using zinc-cysteine complexes” (priority 2000, dated 2011)
# What was measured:
# Assay type in all cases: cell-based
# [1] = system: catalase; assay: Catalase activity in cultured retinal pigment epithelial cells; settings: 0, 15, 30 or 100 μM, compared with zinc acetate, zinc chloride, zinc sulfate
# Experimental: (§1) The biological efficacy was tested by adding 0, 15, 30 or 100 μM of zinc cysteine to cultured retinal pigment epithelial cells in comparison to zinc salts (zinc acetate, zinc chloride, and zinc sulfate).
# (§2) The complex of zinc-cysteine increased the activity of antioxidant enzymes catalase and glutathione peroxidase, and the antioxidant protein metallothionein in cultured retinal pigment epithelial cells more efficiently and potently than zinc acetate, zinc chloride, and zinc sulfate. […] The zinc-cysteine complex may be readily absorbed and distributed inside the cell to provide beneficial needs in regulating the antioxidant economy.
# [2] = system: metallothionein; assay: Metallothionein in cultured retinal pigment epithelial cells; settings: 0, 15, 30 or 100 μM, compared with zinc acetate, zinc chloride, zinc sulfate
# Experimental: as §1, §2
# [3] = system: glutathione peroxidase; assay: Glutathione peroxidase activity in cultured retinal pigment epithelial cells; settings: 0, 15, 30 or 100 μM, compared with zinc acetate, zinc chloride, zinc sulfate
# Experimental: as §1, §2
# [4] = system: RPE cells; assay: Protection of RPE cells from increasing hydrogen peroxide concentrations; settings: compared with the zinc salts (zinc acetate, zinc chloride, zinc sulfate)
# Experimental: as §1, §2
smiles,measurement,setting,value
N[C@@H](CS)C(=O)O [cysteine],activity of antioxidant enzyme catalase,[1],did not have an effect
same,antioxidant protein metallothionein,[2],did not have an effect
"NC1C[S][Zn][O]C1=O (stereo not drawn) [zinc-cysteine, zinc-monocysteine complex]",activity of antioxidant enzyme catalase,[1],increased
same,activity of antioxidant enzyme glutathione peroxidase,[3],increased
same,antioxidant protein metallothionein,[2],increased
same,protecting RPE cells from increasing hydrogen peroxide concentrations,[4],more potent
